ChEMBL document CHEMBL5370649, “Novel Coumarin Derivatives Inhibit the Quorum Sensing System and Iron Homeostasis as Antibacterial Synergists against Pseudomonas aeruginosa” (J Med Chem, 2023)
Calls of active or inactive are those of the source. The calls are words filed in the database; no cut-off is given here.

Experiments:
[1] = Metal chelating activity assessed as Fe3+-compound complex formation assessed as pFe(III) value by fluorescence method
Pseudomonas aeruginosa [2] = test: Downregulation of phyllo expression in Pseudomonas aeruginosa PAO1 at 20 uM incubated for 24 hrs by RNA sequencing analysis; format: functional
[3] = Toxicity in Balb/c mouse wound infection model infected with Pseudomonas aeruginosa PAO1 assessed as morphological changes in spleen at 50 uM,TOP for 3 days in Tobramycin by H and E staining based analysis; format: tissue-based; settings: in vivo, topical_or_ocular, 72 h, time 3 day
[4] = biological target: T1, HTH-type quorum-sensing regulator RhlR (Pseudomonas aeruginosa (strain ATCC 15692 / PAO1 / 1C / PRS 101 / LMG12228)) (UniProt P54292); test: Inhibition of RhlR-mediated quorum sensing system in Pseudomonas aeruginosa PAO1 assessed as inhibition of pyocyanin production at 1.25 to 20 uM incubated for 24 hrs by absorbance based assay; settings: dose 1.25-20 µM
T1 sequence (whole entry): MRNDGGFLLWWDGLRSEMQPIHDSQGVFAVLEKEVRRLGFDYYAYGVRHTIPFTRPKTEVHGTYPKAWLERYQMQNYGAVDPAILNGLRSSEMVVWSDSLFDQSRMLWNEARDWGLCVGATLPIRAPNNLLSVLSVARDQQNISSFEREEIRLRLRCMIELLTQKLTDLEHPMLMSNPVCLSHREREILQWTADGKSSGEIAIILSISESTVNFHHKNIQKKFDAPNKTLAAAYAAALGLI

[5] = Inhibition of quorum sensing system in Pseudomonas aeruginosa PAO1-pqsA-gfp assessed as inhibition of GFP fluorescence expression at 1.25 to 20 uM and measured for 12 hrs at 15 mins interval by fluorescence assay; settings: dose 1.25-20 µM
[6] = Inhibition of quorum sensing system in Pseudomonas aeruginosa PAO1-rhlA-gfp assessed as inhibition of GFP fluorescence expression at 1.25 to 20 uM and measured for 12 hrs at 15 mins interval by fluorescence assay; settings: dose 1.25-20 µM
Pseudomonas aeruginosa [7] = test: Downregulation of pilB expression in Pseudomonas aeruginosa PAO1 at 20 uM incubated for 24 hrs by RNA sequencing analysis; format: functional
[8] = Toxicity in Balb/c mouse wound infection model infected with Pseudomonas aeruginosa PAO1 assessed as body weight change at 50 uM,TOP for 3 days in Ciprofloxacin; settings: in vivo, topical_or_ocular, 72 h, time 3 day
Pseudomonas aeruginosa [9] = test: Synergistic antibacterial activity against Pseudomonas aeruginosa PAO1 infected in Balb/c mouse wound infection model assessed as reduction in bacterial survival rate at wounded area at 50 uM,TOP QD for 3 days in presence of Tobramycin by CFU assay; format: functional; settings: time 3 day
[10] = biological target: T2, Transcriptional regulator MvfR (Pseudomonas aeruginosa PA14) (UniProt A0A072ZLE6); test: Inhibition of PqsR-mediated quorum sensing system in Pseudomonas aeruginosa PAO1 assessed as inhibition of pyocyanin production at 1.25 to 20 uM incubated for 24 hrs by absorbance based assay; settings: dose 1.25-20 µM
T2 sequence (whole entry): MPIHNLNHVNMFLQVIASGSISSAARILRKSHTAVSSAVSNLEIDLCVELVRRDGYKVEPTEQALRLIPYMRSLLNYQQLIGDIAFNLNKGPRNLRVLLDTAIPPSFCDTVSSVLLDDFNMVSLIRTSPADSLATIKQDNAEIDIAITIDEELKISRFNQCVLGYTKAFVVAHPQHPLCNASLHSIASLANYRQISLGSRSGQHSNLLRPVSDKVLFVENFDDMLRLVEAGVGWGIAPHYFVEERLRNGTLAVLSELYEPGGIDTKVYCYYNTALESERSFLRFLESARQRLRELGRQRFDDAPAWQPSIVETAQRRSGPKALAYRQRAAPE

[11] = Toxicity in Balb/c mouse wound infection model infected with Pseudomonas aeruginosa PAO1 assessed as morphological changes in heart at 50 uM,TOP for 3 days in Ciprofloxacin by H and E staining based analysis; format: tissue-based; settings: in vivo, topical_or_ocular, 72 h, time 3 day
Pseudomonas aeruginosa [12] = test: Synergistic antibacterial activity against Pseudomonas aeruginosa PAO1 infected in Balb/c mouse wound infection model assessed as healing degree of wound at 50 uM […],TOP QD for 3 days in presence of Ciprofloxacin; format: functional, organism-based; settings: time 3.0 day
Pseudomonas aeruginosa [13] = test: Upregulation of pvdF expression in Pseudomonas aeruginosa PAO1 at 20 uM incubated for 24 hrs by RNA sequencing analysis; format: functional
Pseudomonas aeruginosa [14] = test: Synergistic antibacterial activity against Pseudomonas aeruginosa PAO1 infected in Balb/c mouse wound infection model assessed as reduction in bacterial survival rate at wounded area at 50 uM,TOP QD for 3 days in presence of Ciprofloxacin by CFU assay; format: functional; settings: time 3 day
Pseudomonas aeruginosa [15] = test: Antibacterial activity against Pseudomonas aeruginosa PAO1 in ABTGC medium assessed as bacterial growth inhibition at 1.25 to 20 uM incubated for 16 hrs; format: functional, organism-based; settings: dose 1.25-20 µM
[16] = Toxicity in Balb/c mouse wound infection model infected with Pseudomonas aeruginosa PAO1 assessed as morphological changes in liver at 50 uM,TOP for 3 days in Tobramycin by H and E staining based analysis; format: tissue-based; settings: in vivo, topical_or_ocular, 72 h, time 3 day
[17] = Toxicity in Balb/c mouse wound infection model infected with Pseudomonas aeruginosa PAO1 assessed as morphological changes in lung at 50 uM,TOP for 3 days in Tobramycin by H and E staining based analysis; format: tissue-based; settings: in vivo, topical_or_ocular, 72 h, time 3 day
Pseudomonas aeruginosa [18] = test: Antibiofilm activity against Pseudomonas aeruginosa PAO1 pvds-defective mutant assessed as inhibition of biofilm formation at 1.25 to 20 uM incubated for 24 hrs by crystal violet staining based absorbance assay; format: functional, organism-based; settings: dose 1.25-20 µM
Pseudomonas aeruginosa [19] = test: Synergistic antibacterial activity against Pseudomonas aeruginosa PAO1 infected in Balb/c mouse wound infection model assessed as reduction in bacterial infection at 50 uM,TOP QD for 3 days in presence of Ciprofloxacin by CFU assay; format: functional; set-up: scale not given: the % may be the effect or the level left; settings: time 3 day
Pseudomonas aeruginosa [20] = test: Downregulation of mexA expression in Pseudomonas aeruginosa PAO1 at 20 uM incubated for 24 hrs by RNA sequencing analysis; format: functional
Pseudomonas aeruginosa [21] = test: Inhibition of iron homeostasis in Pseudomonas aeruginosa PAO1 in ABTGC medium assessed as decrease in iron level at 1.25 to 20 uM in presence of FeCl3 by fluorescence based microplate reader analysis (Rvb= 9.6+/-2.00 microM); format: functional; settings: dose 1.25-20 µM
Pseudomonas aeruginosa [22] = test: Downregulation of pilI expression in Pseudomonas aeruginosa PAO1 at 20 uM incubated for 24 hrs by RNA sequencing analysis; format: functional
Pseudomonas aeruginosa [23] = test: Downregulation of rhl expression in Pseudomonas aeruginosa PAO1 at 20 uM incubated for 24 hrs by RNA sequencing analysis; format: functional
Pseudomonas aeruginosa [24] = test: Antibiofilm activity against Pseudomonas aeruginosa PAO1 assessed as inhibition of biofilm formation at 0.5 to 10 uM incubated for 24 hrs by SYTO9 and PI staining based 3D fluorescence confocal microscopy imaging analysis; format: functional, organism-based; settings: dose 0.5-10 µM
[25] = Toxicity in Balb/c mouse wound infection model infected with Pseudomonas aeruginosa PAO1 assessed as morphological changes in kidney at 50 uM,TOP for 3 days in Tobramycin by H and E staining based analysis; format: tissue-based; settings: in vivo, topical_or_ocular, 72 h, time 3 day
Pseudomonas aeruginosa [26] = test: Downregulation of rhlA expression in Pseudomonas aeruginosa PAO1 at 20 uM incubated for 24 hrs by RNA sequencing analysis; format: functional
Pseudomonas aeruginosa [27] = test: Inhibition of iron homeostasis in Pseudomonas aeruginosa PAO1 in ABTGC medium assessed as increase in iron-free pyochelin production at 1.25 to 20 uM in presence of FeCl3 by fluorescence based microplate reader analysis; format: functional, organism-based; settings: dose 1.25-20 µM

Question: Which results are given for `Cc1ccc2oc(=O)cc(OCCCCCCC(=O)NO)c2c1`?
Answer: pFe(III) [1]: 20.1; Activity (Pseudomonas aeruginosa [2]): Active; Activity [3]: Non-Toxic; inhibition [4]: inactive; inhibition [5]: Dose-Dependent Effect; inhibition [6]: inactive; Activity (Pseudomonas aeruginosa [7]): Active; Activity [8]: Non-Toxic; Activity (Pseudomonas aeruginosa [9]): 1.78%; inhibition [10]: Dose-Dependent Effect; Activity [11]: Non-Toxic; Activity (Pseudomonas aeruginosa [12]): Active; Activity (Pseudomonas aeruginosa [13]): Active; Activity (Pseudomonas aeruginosa [14]): 3.19%; Activity (Pseudomonas aeruginosa [15]): inactive; Activity [16]: Non-Toxic; Activity [17]: Non-Toxic; inhibition (Pseudomonas aeruginosa [18]): inactive; Activity (Pseudomonas aeruginosa [19]): 100%; Activity (Pseudomonas aeruginosa [20]): Active; Activity (Pseudomonas aeruginosa [21]): 6.96 µM; Activity (Pseudomonas aeruginosa [22]): Active; Activity (Pseudomonas aeruginosa [23]): Active; inhibition (Pseudomonas aeruginosa [24]): Active; Activity [25]: Non-Toxic; Activity (Pseudomonas aeruginosa [26]): Active; inhibition (Pseudomonas aeruginosa [27]): Active
